# US8350049B2, “Immobilized 1,2-benzisothiazolin-3-one” (priority 2006, dated 2013)
# What was measured:
# [1] = ambient temperature; cited from earlier work
# [2] = system: Pseudomonas aeruginosa DSM 939; assay: Dry-film bactericide test, modified Swiss Standard SNV195120, water-based interior eggshell paint; assay type: cell-based; design: key: 0H: No bacterial growth under the specimen, inhibition zone on the nutrient.; 0: No growth of bacteria under the specimen.; Growth of bacteria under the specimen
# Method: The activity of the immobilized BIT/ZnO complex from Example 8 as a dry-film bactericide against Pseudomonas aeruginosa DSM 939 was determined in a commercially available water-based interior eggshell paint (40% acrylic binder with an adhesion promoter) according to the modified Swiss Standard SNV195120. The composition of the paint, which is typically applied in wet rooms, is set out below.
# The microbiological test was performed according to the procedure described in Example 14.
# [3] = system: Pseudomonas aeruginosa DSM 939; assay: Dry-film bactericide test, modified Swiss Standard SNV195120, water-based interior flat paint; assay type: cell-based
# Method: (§1) The activity of the immobilized BIT/ZnO complex from Example 8 as a dry-film bactericide against Pseudomonas aeruginosa DSM 939 was determined in an ICI UK, Diamond Matt paint, a commercially available water-based interior flat paint (40% acrylic binder) according to the modified Swiss Standard SNV195120, which is described below
# The immobilized BIT/ZnO complex from example 8 was incorporated into the water-based interior flat paint at the levels shown in the Table below. The paints were allowed to equilibrate for one week at room temperature.
# A quantity of 50 mg of the BIT/ZnO complex was mixed with 100 g of the paint (resulting in 0.05% of the specimen 1 in the table below, the other specimens were prepared accordingly). Round filter papers (5.5 cm diameter) were coated with the test material to a thickness of 150 g/m2 wet and the resulting specimens dried at room temperature.
# One half of the test specimen was leached by tap water (9 liters per m^2) in a beaker. The specimens were dried at room temperature and sterilized by gamma radiation from a cobalt 60 source (25 kGy). In the microbiological test, Pseudomonas aeruginosa DSM 939 was used as the bacteria source.
# Liquid cultures of each bacterial strain were incubated over night at appropriate temperatures and then diluted 1:100,000 to result in a count of 10^4 cfu per ml. […]
# Escherichia coli [4] = assay: JIS Z2801:2000 (E) test, water-based interior flat paint; assay type: cell-based; conditions: contact time 8 hrs; active conc. 0.05%
# Method: The activity of the immobilized BIT/ZnO complex from Example 9 as a dry-film bactericide against Escherichia coli was determined in ICI UK, Diamond Matt is paint, a commercially available water-based interior flat paint (40% acrylic binder) according to the JIS Z2801:2000 (E) test (Japanese Industrial Standard Z2801:2000 (E) test, Antimicrobial products—Test for antimicrobial activity and efficacy).
# (§2) The complex was coated on to Leneta Scrub Resistance test panels, with a dry film thickness of 200 micrometers, with a foam roller allowing a drying time of 18 hours between coats. The panels were equilibrated in the dark for 7 days. Subsamples were cut (each 50 mm×50 mm). The samples were inoculated with a suspension of the test bacteria and then incubated in chambers (1 per species) at 20° C. and 65% relative humidity.
# Swabs were employed for recovery of the bacteria. From the blank sample 1.8×10^5 cfu/cm^2 were recovered. This number was taken as the starting bacterial load on the surface.
# [5] = system: Pseudomonas aeruginosa DSM 939; assay: as above; assay type: cell-based; conditions: contact time 8 hrs; active conc. 0.05%
# Method: as §2
# as §1, with “in” for “in an”, “JIS Z2801:2000 (E) test. The microbiological test was performed according to the procedure” for “modified Swiss Standard SNV195120, which is”, “in Example 16.” for “below”
# Escherichia coli [6] = assay: JIS Z2801 test after 24 h water leaching (severe environmental conditions), interior flat paint; assay type: cell-based; conditions: specimens leached in water 24 hours; contact time 24 hrs; active conc. 0.05%
# Method: as §2
# The activity of the immobilized BIT/ZnO complex from Example 8 as a dry-film bactericide after artificial aging against Escherichia coli was determined in ICI UK, Diamond Matt paint, a commercially available water-based interior flat paint (40% acrylic binder) according to the JIS Z2801 test. The paint specimens were prepared as described in example 19. The microbiological test was performed according to the procedure described in Example 16. After equilibration, the specimens were leached in water (24 hours) to simulate use conditions in a severe environment. The paint film was cleaned by water jet.
# [7] = system: Pseudomonas aeruginosa DSM 939; assay: JIS Z2801 test after 24 h water leaching (severe environmental conditions), paint of example 15; assay type: cell-based; conditions: specimens leached in water 24 hours; contact time 24 hrs; active conc. 0.05%
# Method: as §2
# The activity of the immobilized BIT/ZnO complex from Example 8 as a dry-film bactericide after aging against Pseudomonas aeruginosa DSM 939 was determined in the paint described in example 15 according to the JIS Z2801 test. The microbiological test was performed according to the procedure described in Example 16. After equilibration, the specimens were leached in water (24 hours) to simulate use conditions in a severe environment. The paint film was cleaned by water jet.
# [8] = system: Pseudomonas aeruginosa DSM 939; assay: JIS Z2801 test, interior acrylic wall paint of example 15; assay type: cell-based; conditions: contact time 8 hrs; active conc. 0.05%
# Method: as §2
# The activity of the immobilized BIT/ZnO complex from Example 8 as a dry-film bactericide against Pseudomonas aeruginosa DSM 939 was determined in the paint described in example 15 according to the JIS Z2801 test. The microbiological test was performed according to the procedure described in to Example 16.
compound,measurement,setting,value
"O=c1[nH]sc2ccccc12 [BIT, 1,2-benzisothiazolin-3-one]",solubility of BIT in methanol,[1],greater than 5%
"CN(C)C(=S)SSC(=S)N(C)C [Thiram, tetramethylthiuram disulfide]",Psa unleached,[2]; active conc. 0.1%,G
same,Psa leached 24 h,[2]; active conc. 0.1%,G
same,Psa unleached,[2]; active conc. 0.2%,G
same,Psa leached 24 h,[2]; active conc. 0.2%,G
same,Psa unleached,[3]; active conc. 0.1%,0
same,Psa unleached,[3]; active conc. 0.2%,0
Zinc Pyrithione [ZPT],Kill rate % related to blank paint,Escherichia coli [4],96.4%
same,Log (Cfu/cm^2),Escherichia coli [4],3.76 Log (Cfu/cm^2)
same,Kill rate % related to blank paint,[5],69.40%
same,Log (Cfu/cm^2),[5],4.18 Log (Cfu/cm^2)
same,Kill rate % related to blank paint,Escherichia coli [6],20%
same,Log (Cfu/cm^2),Escherichia coli [6],3.04 Log (Cfu/cm^2)
same,Kill rate % related to blank paint,[7],85.5%
same,Log (Cfu/cm^2),[7],3.04 Log (Cfu/cm^2)
same,Kill rate % related to blank paint,[8],39.5%
same,Log (Cfu/cm^2),[8],4.66 Log (Cfu/cm^2)
